Source: ChEMBL document CHEMBL1201862, “PubChem BioAssay data set” (2004)
Activity calls are given as the source filed them.

What was measured:
[1] = molecular target: Eukaryotic translation initiation factor 4E (Mus musculus, UniProt P63073); test: blockers of eIF4G binding by eIF4E – biochemical, TR-FRET, dose response (AID 855); type: functional;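 also: potency for disrupting eIF4E binding to eIF4GI seen as loss of FRET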
Protein Tat = molecular target: T1, Protein Tat (Human immunodeficiency virus type 1 group M subtype B (isolate HXB2)(HIV-1), UniProt P04608); type: functional;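 also: tat binding to TAR RNA read out by fluorescence polarization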
T1 sequence (P04608 whole entry): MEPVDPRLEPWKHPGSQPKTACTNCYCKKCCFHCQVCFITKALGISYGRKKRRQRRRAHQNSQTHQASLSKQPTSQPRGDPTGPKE

[2] = molecular target: 5-hydroxytryptamine receptor 2A (Mus musculus, UniProt P35363); type: functional, cell-based;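 also: CHO-K1 cells with tagged receptor and beta-arrestin; agonist potency measured as compound-induced activation of the receptor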
Mu-type opioid receptor = Mu-type opioid receptor (Homo sapiens, UniProt P35372); type: functional, cell-based;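 also: U2OS cells with beta-arrestin recruitment to OPRM1 by beta-gal complementation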
[3] = molecular target: T2, Rac GTPase-activating protein 1 (Homo sapiens, UniProt Q9H0H5); test: blockers of MgcRacGAP-driven Rac1 GTP hydrolysis – biochemical, ADP Hunter fluorescence, primary and confirmatory, confirmation (AID 624330); type: functional
T2 sequence (Q9H0H5 whole entry): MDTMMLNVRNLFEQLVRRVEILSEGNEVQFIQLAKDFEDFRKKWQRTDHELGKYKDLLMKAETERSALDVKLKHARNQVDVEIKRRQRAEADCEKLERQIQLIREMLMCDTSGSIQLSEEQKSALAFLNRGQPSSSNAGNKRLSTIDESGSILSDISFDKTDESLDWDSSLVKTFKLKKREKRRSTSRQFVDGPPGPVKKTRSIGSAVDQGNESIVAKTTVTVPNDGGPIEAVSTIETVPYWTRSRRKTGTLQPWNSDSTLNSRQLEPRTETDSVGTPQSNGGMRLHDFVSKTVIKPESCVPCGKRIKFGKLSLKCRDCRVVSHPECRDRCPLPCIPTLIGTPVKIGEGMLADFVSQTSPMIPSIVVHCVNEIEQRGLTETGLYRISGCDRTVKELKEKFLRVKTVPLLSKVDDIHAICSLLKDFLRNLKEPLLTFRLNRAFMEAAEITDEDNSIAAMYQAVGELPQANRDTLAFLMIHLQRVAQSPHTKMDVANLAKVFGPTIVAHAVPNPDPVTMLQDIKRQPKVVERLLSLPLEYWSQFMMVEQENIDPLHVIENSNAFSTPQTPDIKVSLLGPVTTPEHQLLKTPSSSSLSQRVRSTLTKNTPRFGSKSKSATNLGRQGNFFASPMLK

Bcl-2-like protein 10 = molecular target: T3, Bcl-2-like protein 10 (Homo sapiens, UniProt Q9HD36); test: Bcl-B/TR3 peptide binding disruption – biochemical, fluorescence polarization, FITC-TR3 peptide, selectivity assay for Bfl-1 inhibitor project, primary screen (AID 748);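 also: fluorescence polarization from a fluorescein-labelled TR3 peptide binding purified Bcl-B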
T3 sequence (Q9HD36 whole entry): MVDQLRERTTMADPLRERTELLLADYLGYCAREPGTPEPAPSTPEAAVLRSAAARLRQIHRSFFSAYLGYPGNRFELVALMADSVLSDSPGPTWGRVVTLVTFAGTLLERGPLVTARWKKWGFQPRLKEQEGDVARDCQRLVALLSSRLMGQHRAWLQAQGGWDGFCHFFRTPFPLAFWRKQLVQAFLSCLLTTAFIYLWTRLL

[4] = molecular target: T4, Histone-lysine N-methyltransferase NSD2 (Homo sapiens, UniProt O96028); type: biochemical
T4 sequence (O96028 whole entry): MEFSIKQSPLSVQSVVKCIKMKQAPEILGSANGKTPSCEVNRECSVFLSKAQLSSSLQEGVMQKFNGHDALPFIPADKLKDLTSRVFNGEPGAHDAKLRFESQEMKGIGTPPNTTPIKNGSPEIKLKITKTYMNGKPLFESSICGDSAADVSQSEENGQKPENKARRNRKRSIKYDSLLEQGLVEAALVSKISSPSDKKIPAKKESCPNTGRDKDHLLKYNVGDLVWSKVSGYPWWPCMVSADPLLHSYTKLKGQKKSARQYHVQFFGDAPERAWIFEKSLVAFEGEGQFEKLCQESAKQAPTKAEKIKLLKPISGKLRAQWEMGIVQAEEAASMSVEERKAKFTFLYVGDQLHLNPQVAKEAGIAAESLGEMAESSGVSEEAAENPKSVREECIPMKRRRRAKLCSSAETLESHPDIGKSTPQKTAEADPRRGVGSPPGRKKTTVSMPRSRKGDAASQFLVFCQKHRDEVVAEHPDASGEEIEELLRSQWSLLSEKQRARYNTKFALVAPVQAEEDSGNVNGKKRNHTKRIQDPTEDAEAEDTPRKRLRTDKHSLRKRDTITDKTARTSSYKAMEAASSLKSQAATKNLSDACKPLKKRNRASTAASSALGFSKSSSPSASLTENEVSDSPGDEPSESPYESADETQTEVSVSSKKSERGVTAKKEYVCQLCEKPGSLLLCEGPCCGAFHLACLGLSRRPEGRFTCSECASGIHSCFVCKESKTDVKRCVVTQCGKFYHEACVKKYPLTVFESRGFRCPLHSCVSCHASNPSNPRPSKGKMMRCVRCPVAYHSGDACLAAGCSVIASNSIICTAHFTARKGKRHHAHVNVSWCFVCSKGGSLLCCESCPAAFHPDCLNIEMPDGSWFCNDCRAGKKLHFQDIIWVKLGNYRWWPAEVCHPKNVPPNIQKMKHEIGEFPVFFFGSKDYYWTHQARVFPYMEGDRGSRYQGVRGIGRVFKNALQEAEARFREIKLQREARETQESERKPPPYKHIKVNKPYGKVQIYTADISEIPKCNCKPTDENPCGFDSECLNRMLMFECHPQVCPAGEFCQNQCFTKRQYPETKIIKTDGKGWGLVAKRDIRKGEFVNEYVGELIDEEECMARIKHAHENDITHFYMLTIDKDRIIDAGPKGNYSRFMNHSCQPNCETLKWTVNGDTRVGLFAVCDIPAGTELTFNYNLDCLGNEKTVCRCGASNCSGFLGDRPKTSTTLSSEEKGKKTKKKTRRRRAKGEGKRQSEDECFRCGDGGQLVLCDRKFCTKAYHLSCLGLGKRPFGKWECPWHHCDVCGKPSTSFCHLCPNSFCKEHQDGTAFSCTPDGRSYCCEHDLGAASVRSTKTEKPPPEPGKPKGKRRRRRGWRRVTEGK

[5] = blockers of bursicon-stimulated LGR2 cAMP reporter – cell-based, HEK293, CRE-luciferase reporter, cherry pick, set 2, dose response (AID 743343); type: functional;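 also: transfected cells were stimulated with diluted bursicon conditioned medium after compound addition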
[6] = viability loss in HEK293 cells – cell-based, plate reader, cherry-picked samples, cytotoxicity control, dose response (AID 743446); type: functional
[7] = Luminescence Cell-Based Dose Confirmation HTS to Identify Inhibitors of Platelet Dense Granule Release. [Related pubchem assays: 1663 (Primary HTS), 1678 (Summary of Project)]; type: functional
[8] = A549 cell cytotoxicity, dose response, cytotoxicity control, plate reader, cherry-pick, antagonist series (AID 743412); type: functional, cell-based
HEK293 = test: EBV LMP1 TES2 canonical NF-kB signalling blockers – cell-based, HEK293, luciferase, cherry-pick, dose response (AID 588343); type: functional; conditions: Homo sapiens
[9] = blockade of melanocortin 4 receptor signaling – cell-based, plate reader, cherry pick, counter-screen for LGR2 antagonist project, dose response (AID 743444); type: functional;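 also: transfected HEK 293 cells stimulated with alpha-MSH peptide; potency of inhibitors of the alpha-MSH evoked signal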
[10] = molecular target: Luciferin 4-monooxygenase (Photinus pyralis, UniProt P08659); test: inhibition of purified Photinus pyralis luciferase – biochemical, luminescence, dose response (AID 1891)
[11] = toxicity toward HepG2 liver cells – cell-based, plate reader, cherry-pick, antagonist series, cytotoxicity control, dose response (AID 743416); type: functional
[12] = HGIII-sPLA2 enzyme inhibition potency – biochemical, QFRET, IC50, dose response (AID 743457);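 also: green fluorescence rise as the enzyme cleaves BODIPY PC-A2 in liposomes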
[13] = molecular target: T5, Oxysterols receptor LXR-beta (Homo sapiens, UniProt P55055); test: LXR agonists, Gal4 luciferase reporter, dose response, counter-screen for ssDAF-12 agonist project, cell-based, luminescence, HEK293, S. stercoralis campaign (AID 720737); type: functional; conditions: read-out: IC50 (the source's name)
T5 sequence (P55055 whole entry): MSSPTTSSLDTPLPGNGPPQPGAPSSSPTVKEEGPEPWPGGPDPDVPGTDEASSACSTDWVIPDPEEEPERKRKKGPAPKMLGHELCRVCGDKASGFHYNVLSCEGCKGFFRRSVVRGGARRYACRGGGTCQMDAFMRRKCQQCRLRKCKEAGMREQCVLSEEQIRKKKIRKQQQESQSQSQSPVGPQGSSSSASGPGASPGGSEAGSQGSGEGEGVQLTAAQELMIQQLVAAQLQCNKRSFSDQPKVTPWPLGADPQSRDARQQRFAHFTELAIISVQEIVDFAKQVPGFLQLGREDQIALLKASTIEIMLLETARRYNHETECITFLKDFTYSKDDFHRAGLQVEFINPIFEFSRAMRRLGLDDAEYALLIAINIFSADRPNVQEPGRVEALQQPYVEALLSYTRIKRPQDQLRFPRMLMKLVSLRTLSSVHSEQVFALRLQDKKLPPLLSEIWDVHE

[14] = Luminescence-based cell-based high throughput dose response assay to identify activators of the DAF-12 from the parasite S. stercoralis (ssDAF-12).; type: functional
[15] = molecular target: T5, Oxysterols receptor LXR-beta; type: functional, cell-based
Prothrombin = Prothrombin (Homo sapiens, UniProt P00734); test: Thrombin 1536 HTS Dose Response Confirmation. [Related pubchem assays: 1046 (Thrombin 1536 HTS; hits were confirmed in this assay)]; type: functional

Sequence of Luciferin 4-monooxygenase (P08659 whole entry): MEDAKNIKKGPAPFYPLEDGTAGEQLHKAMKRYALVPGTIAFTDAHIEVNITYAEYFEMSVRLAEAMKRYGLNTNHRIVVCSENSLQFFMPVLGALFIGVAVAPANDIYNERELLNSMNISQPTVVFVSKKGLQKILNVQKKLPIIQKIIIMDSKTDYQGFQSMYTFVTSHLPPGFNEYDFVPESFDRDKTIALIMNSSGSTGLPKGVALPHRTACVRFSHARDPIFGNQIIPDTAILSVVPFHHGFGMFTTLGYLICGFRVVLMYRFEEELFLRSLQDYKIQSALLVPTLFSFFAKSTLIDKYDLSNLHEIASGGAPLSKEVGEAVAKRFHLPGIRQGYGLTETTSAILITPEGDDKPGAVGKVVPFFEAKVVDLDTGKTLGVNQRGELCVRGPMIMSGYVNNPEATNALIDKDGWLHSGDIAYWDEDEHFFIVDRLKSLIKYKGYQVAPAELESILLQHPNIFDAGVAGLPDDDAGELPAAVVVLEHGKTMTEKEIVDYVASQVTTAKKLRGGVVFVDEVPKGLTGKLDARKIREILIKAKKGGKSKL
Sequence of Eukaryotic translation initiation factor 4E (P63073 whole entry): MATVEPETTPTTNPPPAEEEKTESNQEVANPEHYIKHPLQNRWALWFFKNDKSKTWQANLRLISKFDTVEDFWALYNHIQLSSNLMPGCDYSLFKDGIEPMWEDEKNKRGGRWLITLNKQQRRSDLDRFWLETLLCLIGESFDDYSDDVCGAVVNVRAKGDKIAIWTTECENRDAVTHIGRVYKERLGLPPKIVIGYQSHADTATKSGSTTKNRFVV
Sequence of Mu-type opioid receptor (P35372 whole entry): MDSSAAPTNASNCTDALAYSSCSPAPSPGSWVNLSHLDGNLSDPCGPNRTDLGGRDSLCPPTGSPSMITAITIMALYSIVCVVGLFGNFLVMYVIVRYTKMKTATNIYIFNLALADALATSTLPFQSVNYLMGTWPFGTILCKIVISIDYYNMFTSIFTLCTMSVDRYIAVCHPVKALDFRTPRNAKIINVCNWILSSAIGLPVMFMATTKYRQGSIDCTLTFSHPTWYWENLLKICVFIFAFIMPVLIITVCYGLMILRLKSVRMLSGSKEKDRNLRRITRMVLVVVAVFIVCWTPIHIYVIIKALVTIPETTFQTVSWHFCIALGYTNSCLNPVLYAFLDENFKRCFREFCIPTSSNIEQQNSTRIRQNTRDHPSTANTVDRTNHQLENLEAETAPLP
Sequence of 5-hydroxytryptamine receptor 2A (P35363 whole entry): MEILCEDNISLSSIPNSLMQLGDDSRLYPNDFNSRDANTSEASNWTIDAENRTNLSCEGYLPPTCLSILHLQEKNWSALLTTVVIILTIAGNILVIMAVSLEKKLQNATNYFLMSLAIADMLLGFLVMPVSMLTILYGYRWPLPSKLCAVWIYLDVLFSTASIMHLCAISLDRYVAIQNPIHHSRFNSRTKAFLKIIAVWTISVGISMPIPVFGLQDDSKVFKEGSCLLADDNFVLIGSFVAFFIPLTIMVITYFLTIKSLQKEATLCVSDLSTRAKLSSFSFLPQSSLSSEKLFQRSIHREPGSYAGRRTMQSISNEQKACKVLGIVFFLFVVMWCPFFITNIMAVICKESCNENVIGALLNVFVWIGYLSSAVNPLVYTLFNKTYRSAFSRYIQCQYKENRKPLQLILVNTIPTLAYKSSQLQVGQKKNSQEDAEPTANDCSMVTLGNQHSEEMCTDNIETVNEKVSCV

Structure (SMILES): O=c1cc(CCl)nc2sc3ccccc3n12
- IC50 [1]: 50 µM (inactive)

Structure (SMILES): Cc1cc(C)c(S(=O)(=O)NCC2CCC(C(=O)N3CCC4(CC3)OCCO4)CC2)c(C)c1 (centres undefined)
- IC50 (Protein Tat): > 100 µM (active)

Structure (SMILES): Cc1ccc(S(=O)(=O)N2CCOCC2)cc1NC(=O)CNCc1cccnc1
- EC50 [2]: 6.05 µM (active)
- EC50 (Mu-type opioid receptor): 92.5 µM (inactive)
- IC50 [3]: 108 µM (active)

Structure (SMILES): Cc1cc[n+]2c3c(cccc13)CCC2
- IC50 (Bcl-2-like protein 10): 63.2 µM (inactive)

Structure (SMILES): CCN(CC)CCCNc1cc(C(F)(F)F)c(C#N)c2nc3ccccc3n12
- AC50 [4]: > 20 µM (inactive)

Structure (SMILES): CCOc1ccc(C(=O)Nc2cc(C)ccn2)cc1
- AC50 [5]: 4.55 µM (active)
- AC50 [6]: 22.1 µM (active)
- EC50 [7]: 2.45 µM (active)
- AC50 [8]: 21 µM (active)
- AC50 (HEK293): 2.17 µM (active)
- AC50 [9]: 2.97 µM (active)
- EC50 [10]: 1.19 µM (active)
- AC50 [11]: 24.6 µM (active)

Structure (SMILES): COc1ccc(CCNC(=O)/C=C/c2ccco2)cc1
- IC50 (Protein Tat): > 100 µM (active)

Structure (SMILES): Cc1cccc(NC(S)=NNC(=O)c2ccc3c(c2)OCO3)c1
- IC50 [12]: > 122 µM (inactive)

Structure (SMILES): COc1cc(-c2nc3ccccc3c(=O)n2N)cc(OC)c1OC
- EC50 [13]: > 67.5 µM (inactive)
- IC50 [14]: > 67.5 µM (inactive)

Structure (SMILES): COc1ccc(-c2cn3ccc4ccccc4c3n2)cc1
- EC50 [13]: > 67.5 µM (inactive)
- EC50 (cells): > 67.5 µM (inactive)
- EC50 [15]: > 67.5 µM (inactive)
- IC50 [14]: > 67.5 µM (inactive)

Structure (SMILES): COc1cccc(-c2cc(C(=O)Nc3c(C)nn(Cc4ccccc4)c3C)no2)c1
- IC50 (Prothrombin): > 50 µM (not active)
